Laboratory results taken from US12668591B2, “1,2,4-oxadiazole derivatives as histone deacetylase 6 inhibitors” (Oryzon Genomics, S.A., priority 2017, dated 2026).

Columns and labels:
HDAC6 [1] = target: T1, HDAC6 (Homo sapiens, UniProt Q9UBN7); experiment: HDAC6 enzyme inhibition assay (fluorimetric); type: biochemical; conditions: 1 μM compound; 3 h pre-incubation; recombinant full length HDAC6; read-out: HDAC6 % inh @ 1 μM
T1 sequence (Q9UBN7 1-1215): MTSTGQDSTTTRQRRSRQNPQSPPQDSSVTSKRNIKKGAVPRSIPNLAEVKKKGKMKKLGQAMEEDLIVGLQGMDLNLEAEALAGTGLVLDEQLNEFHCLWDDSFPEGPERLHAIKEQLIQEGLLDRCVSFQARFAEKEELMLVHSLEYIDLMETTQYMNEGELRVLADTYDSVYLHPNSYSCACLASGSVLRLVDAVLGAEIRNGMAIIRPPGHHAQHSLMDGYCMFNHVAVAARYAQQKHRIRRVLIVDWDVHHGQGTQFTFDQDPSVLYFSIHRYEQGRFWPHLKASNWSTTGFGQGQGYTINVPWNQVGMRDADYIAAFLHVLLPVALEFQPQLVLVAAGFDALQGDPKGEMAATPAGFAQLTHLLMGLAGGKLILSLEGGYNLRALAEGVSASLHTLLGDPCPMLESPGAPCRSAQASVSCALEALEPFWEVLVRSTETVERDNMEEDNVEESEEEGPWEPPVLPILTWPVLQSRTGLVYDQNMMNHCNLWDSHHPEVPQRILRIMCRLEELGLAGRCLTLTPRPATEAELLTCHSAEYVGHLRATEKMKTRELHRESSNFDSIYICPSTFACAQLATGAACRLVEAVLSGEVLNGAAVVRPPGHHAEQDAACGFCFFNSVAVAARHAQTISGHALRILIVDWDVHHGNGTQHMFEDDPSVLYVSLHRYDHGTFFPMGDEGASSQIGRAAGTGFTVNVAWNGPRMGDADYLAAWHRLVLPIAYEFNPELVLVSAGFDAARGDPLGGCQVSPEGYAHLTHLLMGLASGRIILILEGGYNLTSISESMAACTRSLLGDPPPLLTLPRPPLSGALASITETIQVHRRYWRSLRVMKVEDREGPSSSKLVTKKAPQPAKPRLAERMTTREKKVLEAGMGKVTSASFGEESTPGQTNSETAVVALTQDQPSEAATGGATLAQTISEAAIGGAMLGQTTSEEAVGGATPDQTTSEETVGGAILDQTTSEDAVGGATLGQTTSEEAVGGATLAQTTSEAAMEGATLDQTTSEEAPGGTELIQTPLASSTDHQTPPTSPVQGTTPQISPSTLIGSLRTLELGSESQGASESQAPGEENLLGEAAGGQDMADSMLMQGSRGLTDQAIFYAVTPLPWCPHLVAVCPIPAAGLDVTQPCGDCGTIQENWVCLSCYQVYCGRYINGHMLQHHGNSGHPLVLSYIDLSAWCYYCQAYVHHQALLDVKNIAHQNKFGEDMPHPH
Method: (§1) HDAC6 and HDAC2 Enzyme Inhibition Assay
(§2) A fluorimetric assay was used for testing the activity of compounds of the invention against HDAC6 and HDAC2.
(§3) The compounds were dissolved in DMSO. Serial dilutions were prepared in DMSO and then diluted 1:10 in HDAC assay buffer (Tris-buffered solution, BPS Bioscience Inc. #50031). 5 μl of the compound dilution was added to a 50 μl reaction so that the final concentration of DMSO was 1%.
(§4) The compounds were pre-incubated in duplicate at RT for 3 hours in a mixture containing HDAC assay buffer, 5 μg BSA and recombinant HDAC enzyme (see table above). The enzymatic reactions were initiated by the addition of a fluorogenic, acetylated peptide substrate based on a histone protein (BPS Bioscience Inc. #50037) to a final concentration of 10 μM. The enzymatic reaction proceeded for 30 minutes at 37° C. Then, 50 μl of 2× HDAC Developer, which contains peptidase activity and Trichostatin A (BPS Bioscience Inc. #50030) was added and the plate was incubated at RT for an additional 15 minutes. Fluorescence intensity was measured at an excitation of 360 nm and an emission of 460 nm using a Tecan Infinite M1000 microplate reader.
(§5) Trichostatin A (TSA, Selleckchem #S1045) was used as reference inhibitor.
(§6) The fluorescent intensity data were analyzed using the computer software Graphpad Prism (GraphPad Software, San Diego, CA). 100% activity was defined as the fluorescent intensity (Ft) in the absence of the compound. 0% activity was defined as the fluorescent intensity (Fb) in the absence of the enzyme. The percent activity in the presence of each compound was calculated according to the following equation: % activity=(F−Fb)/(Ft−Fb), where F=the fluorescent intensity in the presence of the compound.

HDAC2 = target: T2, HDAC2 (Homo sapiens, UniProt Q92769); experiment: HDAC2 enzyme inhibition assay (fluorimetric); type: biochemical; conditions: 1 μM compound; 3 h pre-incubation; recombinant full length HDAC2; read-out: HDAC2 % inh @ 1 μM
T2 construct: (full length with C-terminal His-tag); His (C); purchased BPS Bioscience Inc. 50002
T2 sequence (Q92769 whole entry): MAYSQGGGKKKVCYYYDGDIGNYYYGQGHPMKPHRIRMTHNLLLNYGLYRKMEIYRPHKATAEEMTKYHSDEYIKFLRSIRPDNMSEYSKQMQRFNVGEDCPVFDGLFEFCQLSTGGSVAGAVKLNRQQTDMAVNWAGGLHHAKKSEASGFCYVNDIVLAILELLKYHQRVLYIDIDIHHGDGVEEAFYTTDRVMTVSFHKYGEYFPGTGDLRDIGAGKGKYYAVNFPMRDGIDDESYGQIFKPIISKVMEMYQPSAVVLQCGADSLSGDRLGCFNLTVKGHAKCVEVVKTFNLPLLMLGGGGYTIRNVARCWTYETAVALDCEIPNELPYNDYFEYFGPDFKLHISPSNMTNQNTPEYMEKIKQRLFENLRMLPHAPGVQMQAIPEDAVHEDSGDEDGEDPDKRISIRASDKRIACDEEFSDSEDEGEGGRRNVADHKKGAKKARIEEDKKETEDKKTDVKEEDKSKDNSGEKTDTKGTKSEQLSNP
Method: as §1, §2, §3, §4, §5, §6

HDAC6 [2] = target: T1, HDAC6; experiment: In vitro cell-based assay: acetylation levels of Alpha-Tubulin by Western Blot in MOLP8 cells; design: endogenous in cells; host or cells: MOLP8; conditions: 18 h, acetyl-alpha-tubulin relative band intensity, ACY-1215 1 μM = 100%
Method in brief: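 MOLP8 cells treated with compounds at 5 and 1 μM for 18 h at 37° C.; acetyl-alpha-tubulin measured by Western blot of RIPA extracts (7 μg protein). Bands normalized to total protein or beta-actin, expressed relative to ACY-1215 1 μM (100%), then classed.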

Compound	inhibition at 1 µM (HDAC6 [1])	inhibition at 1 µM (HDAC2)	Cellular activity @1 uM (HDAC6 [2])	Cellular activity @5 uM (HDAC6 [2])
FC(F)(F)c1nc(-c2ccnc(-c3cc4c(ccn4Cc4ccccn4)cn3)c2)no1 [Example 1aw, 3-(2-(1-(Pyridin-2-ylmethyl)-1H-pyrrolo[3,2-c]pyridin-6-yl)pyridin-4-yl)-5-(trifluoromethyl)-1,2,4-oxadiazole]	81%	15%	+ (50-150)	++ (150-300)
CCN(CC)CCCOc1ccc(-c2cc(-c3noc(C(F)(F)F)n3)ccn2)nc1 [Example 1c, N,N-Diethyl-3-((4′-(5-(trifluoromethyl)-1,2,4-oxadiazol-3-yl)-[2,2′-bipyridin]-5-yl)oxy)propan-1-amine]	89%	3%	+ (50-150)	++ (150-300)
FC(F)(F)c1nc(-c2ccnc(-c3ccc(OCCCN4CCOCC4)cn3)c2)no1 [Example 1e, 4-(3-((4′-(5-(Trifluoromethyl)-1,2,4-oxadiazol-3-yl)-[2,2′-bipyridin]-5-yl)oxy)propyl)morpholine]	84%	9%	+ (50-150)	++ (150-300)
FC1(F)CCN(CCCOc2ccc(-c3cc(-c4noc(C(F)(F)F)n4)ccn3)nc2)CC1 [Example 1f, 3-(5′-(3-(4,4-Difluoropiperidin-1-yl)propoxy)-[2,2′-bipyridin]-4-yl)-5-(trifluoromethyl)-1,2,4-oxadiazole]	71%	16%	− (<50)	++ (150-300)
CCCn1cc(CN2CCCCC2)c2cc(-c3cc(-c4noc(C(F)(F)F)n4)ccn3)ncc21 [Example 1g, 3-(2-(3-(Piperidin-1-ylmethyl)-1-propyl-1H-pyrrolo[2,3-c]pyridin-5-yl)pyridin-4-yl)-5-(trifluoromethyl)-1,2,4-oxadiazole]	96%	38%	+ (50-150)	+++ (>300)
CN(CC1CC1)c1ccc(-c2cc(-c3noc(C(F)(F)F)n3)ccn2)nc1 [Example 1j, N-(Cyclopropylmethyl)-N-methyl-4′-(5-(trifluoromethyl)-1,2,4-oxadiazol-3-yl)-[2,2′-bipyridin]-5-amine]	69%	10%	− (<50)	++ (150-300)
CCN(CC)CCCNc1ccc(-c2cc(-c3noc(C(F)(F)F)n3)ccn2)nc1 [Example 1k, N^1,N^1-Diethyl-N^3-(4′-(5-(trifluoromethyl)-1,2,4-oxadiazol-3-yl)-[2,2′-bipyridin]-5-yl)propane-1,3-diamine]	95%	27%	+ (50-150)	+ (50-150)
FC(F)(F)c1nc(-c2ccnc(-c3cc4c(ccn4C4CCOCC4)cn3)c2)no1 [Example 1o, 3-(2-(1-(Tetrahydro-2H-pyran-4-yl)-1H-pyrrolo[3,2-c]pyridin-6-yl)pyridin-4-yl)-5-(trifluoromethyl)-1,2,4-oxadiazole]	97%	23%	++ (150-300)	+++ (>300)
O=C(Cc1ccccc1)Nc1ccc(-c2cc(-c3noc(C(F)(F)F)n3)ccn2)nc1 [Example 1q, 2-Phenyl-N-(4′-(5-(trifluoromethyl)-1,2,4-oxadiazol-3-yl)-[2,2′-bipyridin]-5-yl)acetamide]	73%	11%	+ (50-150)	++ (150-300)
CN(C)C(=O)c1cc2cc(-c3cc(-c4noc(C(F)(F)F)n4)ccn3)ncc2n1C [Example 1u, N,N,1-Trimethyl-5-(4-(5-(trifluoromethyl)-1,2,4-oxadiazol-3-yl)pyridin-2-yl)-1H-pyrrolo[2,3-c]pyridine-2-carboxamide]	98%	19%	+++ (>300)	+++ (>300)
CCCn1cc(-c2cn[nH]c2)c2cc(-c3cc(-c4noc(C(F)(F)F)n4)ccn3)ncc21 [Example 1v, 3-(2-(1-Propyl-3-(1H-pyrazol-4-yl)-1H-pyrrolo[2,3-c]pyridin-5-yl)pyridin-4-yl)-5-(trifluoromethyl)-1,2,4-oxadiazole]	66%	3%	+ (50-150)	+++ (>300)
CCCCn1c(C(=O)N(CC)CC)cc2cc(-c3cc(-c4noc(C(F)(F)F)n4)ccn3)ncc21 [Example 1w, 1-Butyl-N,N-diethyl-5-(4-(5-(trifluoromethyl)-1,2,4-oxadiazol-3-yl)pyridin-2-yl)-1H-pyrrolo[2,3-c]pyridine-2-carboxamide]	86%	6%	+ (50-150)	++ (150-300)
COCCn1ccc2cc(-c3cc(-c4noc(C(F)(F)F)n4)ccn3)ncc21 [Example 1x, 3-(2-(1-(2-Methoxyethyl)-1H-pyrrolo[2,3-c]pyridin-5-yl)pyridin-4-yl)-5-(trifluoromethyl)-1,2,4-oxadiazole]	95%	16%	++ (150-300)	+++ (>300)
O=C(CN1CCC(F)(F)CC1)Nc1ccnc(-c2cc(-c3noc(C(F)(F)F)n3)ccn2)c1 [Example 1y, 2-(4,4-Difluoropiperidin-1-yl)-N-(4′-(5-(trifluoromethyl)-1,2,4-oxadiazol-3-yl)-[2,2′-bipyridin]-4-yl)acetamide]	92%	27%	+ (50-150)	++ (150-300)
FC1(F)CCN(CCNc2ccnc(-c3cc(-c4noc(C(F)(F)F)n4)ccn3)c2)CC1 [Example 1z, N-(2-(4,4-Difluoropiperidin-1-yl)ethyl)-4′-(5-(trifluoromethyl)-1,2,4-oxadiazol-3-yl)-[2,2′-bipyridin]-4-amine]	97%	46%	+ (50-150)	++ (150-300)
